Reference: publication PMC10098121, “Amphipathic barbiturates as marine product mimics with cytolytic and immunogenic effects on head and neck squamous cell carcinoma cell lines” (Frontiers in Pharmacology, 2023)
Read-outs that look alike come from different tables or passages of the source.

Experiments:
human red blood cells [1] = test: Hemolysis assay; type: cell-based; settings: for EC50: Homo sapiens, Erythrocyte, 1 h, 37°C, highest concentration tested 500 μM, average of three experiments, read-out: EC50 hemolytic activity against human red blood cells
Method: The hemolytic effect of the MPMs was determined using a hemolysis assay as previously described ([Paulsen et al., 2021]). Briefly, hemolysis was determined using a heparinized fraction (10 IU/mL) of freshly drawn blood. The blood collected in ethylenediaminetetraacetic acid-containing test tubes (Vacutest, KIMA, Arzergrande, Italy) was used for the determination of the hematocrit (hct). The heparinized blood was washed 3 × with pre-warmed phosphate-buffered saline (PBS) and adjusted to a final hct of 4%. MPMs in DMSO (50 mM) were added to a 96-well polypropylene V-bottom plate (NUNC, Fisher Scientific, Oslo, Norway) and serially diluted. The test concentration range was 4–500 μM with DMSO contents ≤1%. A solution of 1% triton X-100 was used as a positive control for 100% hemolysis. As a negative control, a solution of 1% DMSO in PBS was included. Red blood cells (1% v/v final concentration) were added to the well plate and incubated at 37°C and 800 rpm for 1 h. After centrifugation (5 min, 3000 g), 100 μL from each well was transferred to a 96-well flat-bottomed microtiter plate, and absorbance was measured at 545 nm with a microplate reader (VersaMaxTM, Molecular Devices, Sunnyvale, CA, United States). The percentage of hemolysis was calculated as the ratio of the absorbance in the MPM treated and surfactant-treated samples, corrected for the PBS background. Three independent experiments were performed, and EC50 values are presented as averages.

Bacillus subtilis 168 = test: Bacterial minimum inhibitory concentration (broth microdilution); type: cell-based; settings: Bacillus subtilis 168, 48 h, 35 °C, di-TFA salts
Method: (§1) Method for determination of bacterial minimum inhibitory concentration (MIC) Stock solutions of the water-soluble compounds were prepared by dissolving them in ultrapure water (Milli-Q H2O, Millipore, MA, USA). The less water-soluble compounds were first dissolved in 25 - 50 µL 100% DMSO before further dilution with ultrapure water. The DMSO concentration was always less than 1% in the working concentration of each compound. A modified broth microdilution susceptibility test based on the CLSI M07-A9 protocol, [2] was used to determine minimal inhibitory concentrations (MIC). Briefly, the test compounds were two-fold diluted with ultrapure water in polystyrene 96-well flat-bottom microplates (NUNC, Roskilde, Denmark). The bacterial inoculum was diluted to 2.5 - 3 x 10^4 cells/mL in Mueller-Hinton broth (MHB, Difco Laboratories, USA) and added to the different diluted compounds in a ratio of 1:1. Positive control (ciprofloxacin, Sigma-Aldrich, USA), negative control (bacteria + water), and media control (media + water) were included in each experiment. The microplates were incubated for 48 h at 35 °C in an EnVision microplate reader (PerkinElmer, Waltham, MA, USA). The lowest concentration of compounds that caused no bacterial growth, as determined by optical density (OD600) measurements, was defined as the MIC value. All compounds were tested in 3 technical replicates.
(§2) Supplementary Video S1. HSC-3 cells were seeded at 100% confluence and a standard scratch wound migration assay was performed. The cells were imaged every 2 hours for 24 hours. The video

[2] = tested on: Pseudomonas aeruginosa ATCC 27853; test: as above; type: cell-based; settings: ATCC27853; Pseudomonas aeruginosa ATCC 27853, 48 h, 35 °C, di-TFA salts
Method: as §1, §2

[3] = tested on: Staphylococcus aureus ATCC 9144; test: as above; type: cell-based; settings: ATCC9144; Staphylococcus aureus ATCC 9144, 48 h, 35 °C, di-TFA salts
Method: as §1, §2

[4] = tested on: Escherichia coli ATCC 25922; test: as above; type: cell-based; settings: ATCC25922; Escherichia coli ATCC 25922, 48 h, 35 °C, di-TFA salts
Method: as §1, §2

UT-SCC-42A = test: High throughput drug screening (CellTiter-Glo, DSS); type: cell-based, human; settings: for drug sensitivity score (DSS): 72 h, 10-100,000 nM, myogel, non-irradiated; for delta DSS (ΔDSS): DSS irradiated (2 Gy) minus DSS non-irradiated, >5 synergy, <–5 antagonism
Method: (§3) The MPMs were screened against a panel of […] different cell lines (HSC-3, UT-SCC-8, UT-SCC-24A, UT-SCC-24B, UT-SCC-42A, UT-SCC-42B and NOF) at the High Throughput Biomedicine Unit (HTB) at the Institute for Molecular Medicine Finland (FIMM). On day 1, black-walled 384-well plates were coated with 5 µl diluted myogel (0.5 mg/ml) per well using an automated reagent dispenser (MultiFlo FX, BioTek, Winooski, VT, United States). On day 2, 500 cells per well were seeded in 20 µl of complete media using the MultiFlo FX (BioTek), and the cells were left to adhere overnight. On day 3, the MPMs, cisplatin, DMSO and Benzethonium chloride were added to the cells using an automatic liquid handler (Echo 550, Labcyte Inc., San Jose, CA, United States). Cisplatin and the MPMs were added to yield five different concentrations in a ten-fold dilution series ranging from 10 to 100,000 nM. Each concentration was tested in triplicate wells. DMSO (0.1%) and benzethonium chloride (100 µM) served as negative and positive control, respectively. Three hours later, some of the plates were irradiated with 2 Gy in a gamma irradiator (OB29/4, STS, Braunschweig, Germany). All plates were taken to the irradiation room to ensure similar handling of the plates. 72 h later, the plates were cooled to room temperature before 25 µl of CellTiter-Glo 2.0 reagent (Promega, Madison, WI, USA) was added to each well using the MultiFlo FX (BioTek). Next, the plates were centrifuged for 5 min at 1,000 rpm before the luminescence signal was measured with the PHERAstar FS HT reader (BMG LABTECH GmbH, Ortenberg, Germany). The raw data was analyzed with the Breeze software (https://breeze.fmm.fi), which normalized the luminescence signal from treated cells against the signal from negative and positive control cells to calculate the percentage of inhibition and generate dose-response curves, which were then used to calculate drug sensitivity scores (DSS). The DSS is a parameter which combines the IC50, the slope of the dose-response curve, and the minimum and maximum responses into a single metric, as previously described ([Yadav et al., 2014]). Quality control was performed by calculation of the Z′-factor, which was >0.7 for all cell lines, indicating high quality of the assay ([Zhang et al., 1999]).

HSC-3 = test: as above; type: cell-based, human; settings: for drug sensitivity score (DSS): HSC-3, 72 h, 10-100,000 nM, myogel, non-irradiated; for delta DSS (ΔDSS): HSC-3, DSS irradiated (2 Gy) minus DSS non-irradiated, >5 synergy, <–5 antagonism
Method: as §3

UT-SCC-8 = test: as above; type: cell-based, human; settings: for drug sensitivity score (DSS): UT-SCC-8, 72 h, 10-100,000 nM, myogel, non-irradiated; for delta DSS (ΔDSS): UT-SCC-8, DSS irradiated (2 Gy) minus DSS non-irradiated, >5 synergy, <–5 antagonism
Method: as §3

UT-SCC-106A = test: as above; type: cell-based, human; settings: for drug sensitivity score (DSS): 72 h, 10-100,000 nM, myogel, non-irradiated; for delta DSS (ΔDSS): DSS irradiated (2 Gy) minus DSS non-irradiated, >5 synergy, <–5 antagonism
Method: as §3

UT-SCC-24B = test: as above; type: cell-based, human; settings: for drug sensitivity score (DSS): 72 h, 10-100,000 nM, myogel, non-irradiated; for delta DSS (ΔDSS): DSS irradiated (2 Gy) minus DSS non-irradiated, >5 synergy, <–5 antagonism
Method: as §3

[5] = tested on: NOF (normal oral fibroblasts); test: as above; type: cell-based, human; settings: for drug sensitivity score (DSS): 72 h, 10-100,000 nM, myogel, non-irradiated; for delta DSS (ΔDSS): DSS irradiated (2 Gy) minus DSS non-irradiated, >5 synergy, <–5 antagonism
Method: as §3

UT-SCC-24A = test: as above; type: cell-based, human; settings: for drug sensitivity score (DSS): 72 h, 10-100,000 nM, myogel, non-irradiated; for delta DSS (ΔDSS): DSS irradiated (2 Gy) minus DSS non-irradiated, >5 synergy, <–5 antagonism
Method: as §3

UT-SCC-42B = test: as above; type: cell-based, human; settings: for drug sensitivity score (DSS): 72 h, 10-100,000 nM, myogel, non-irradiated; for delta DSS (ΔDSS): DSS irradiated (2 Gy) minus DSS non-irradiated, >5 synergy, <–5 antagonism
Method: as §3

[6] = tested on: seven HNSCC cell lines and one normal oral fibroblast cell line (NOF); test: High throughput drug screening, statements on the whole panel; type: cell-based, human; settings: DSS
Method: as §3

human red blood cells [7] = tested on: human red blood cells; design: method as in von Hofsten et al., 2022; settings: highest concentration 500 μM; ref von Hofsten et al., 2022; read-out: EC50 hemolytic activity against human red blood cells; cited from earlier work

Row | SMILES | EC50 (human red blood cells [1]) | MIC (Bacillus subtilis 168) | MIC [2] | MIC [3] | drug sensitivity score (DSS) (UT-SCC-42A) | delta DSS (ΔDSS) (UT-SCC-42A) | drug sensitivity score (DSS) (HSC-3) | delta DSS (ΔDSS) (HSC-3) | drug sensitivity score (DSS) (UT-SCC-8) | delta DSS (ΔDSS) (UT-SCC-8) | drug sensitivity score (DSS) (UT-SCC-106A) | delta DSS (ΔDSS) (UT-SCC-106A) | drug sensitivity score (DSS) (UT-SCC-24B) | delta DSS (ΔDSS) (UT-SCC-24B) | drug sensitivity score (DSS) [5] | delta DSS (ΔDSS) [5] | drug sensitivity score (DSS) (UT-SCC-24A) | delta DSS (ΔDSS) (UT-SCC-24A) | drug sensitivity score (DSS) (UT-SCC-42B) | delta DSS (ΔDSS) (UT-SCC-42B) | other results
1 | NCCCCCN1C(=O)N(CCCCCN)C(=O)C(CCCc2ccccc2)(CCCc2ccccc2)C1=O [MPM-5:0] | 313 µM | 4 µg/mL | 32 µg/mL | 8 µg/mL | 13,5 | -0,8 | 17,6 | 0,2 | 18,1 | 0,4 | 17,9 | -1 | 18,2 | -0,5 | 19 | -1,2 | 17,4 | -1,2 | 11,5 | -0,5 | hemolytic activity against red blood cells (in words) (human red blood cells [1]; test range 4–500 μM): the second lowest RBC EC50; MIC [4]: 32 µg/mL
2 | NCCCN1C(=O)N(CCCN)C(=O)C(CCCc2ccccc2)(CCCc2ccccc2)C1=O [MPM-3:0] | > 500 µM | 16 µg/mL | 64 µg/mL | 32 µg/mL | 11,7 | -1,1 | 16,1 | 0 | 16,5 | -0,6 | 17,1 | -0,6 | 18 | -0,6 | 18,3 | -0,6 | 14,3 | -1,8 | 10,1 | -0,1 | MIC [4]: 64 µg/mL
3 | CNCCCCN1C(=O)N(CCCCNC)C(=O)C(CCCc2ccccc2)(CCCc2ccccc2)C1=O [MPM-4:1] | > 500 µM | 8 µg/mL | > 64 µg/mL | 32 µg/mL | 9,9 | -0,1 | 14,8 | -0,4 | 14,5 | 0,6 | 15,8 | -0,8 | 16,4 | -0,5 | 18,5 | -0,8 | 15,5 | -1,6 | 10,2 | -1,1 | MIC [4]: > 64 µg/mL
4 | C[N+](C)(C)CCCCN1C(=O)N(CCCC[N+](C)(C)C)C(=O)C(CCCc2ccccc2)(CCCc2ccccc2)C1=O [MPM-4:3] | > 500 µM | > 64 µg/mL | > 64 µg/mL | 64 µg/mL | 0,1 | 0 | 0 | 0 | 0 | 0 | 0,5 | -0,5 | 0 | 0,1 | 2,2 | -1,4 | 0 | 0 | 0,1 | -0,1 | MIC [4]: 64 µg/mL; potency / effect on viability over the cell line panel (in words) ([6]; 72 h): completely inactive
5 | NCCCCN1C(=O)N(CCCCN)C(=O)C(CCCc2ccccc2)(CCCc2ccccc2)C1=O [MPM-1] | – | – | – | – | 8,4 | -0,8 | 8,8 | 0 | 10 | -0,8 | 10,3 | 0,3 | 9,7 | 0,5 | 17,1 | 0,4 | 6,9 | -1,1 | 7,4 | 0,6 | EC50 (human red blood cells [7]): > 500 µM; selectivity for cancer cell lines over NOFs (in words) ([6]; cancer lines and NOFs cultured in different media): slight tendency towards selectivity for the NOFs, which was especially prominent for MPM-1
6 | CN(C)CCN1C(=O)N(CCN(C)C)C(=O)C(CCCc2ccccc2)(CCCc2ccccc2)C1=O [MPM-2:2] | > 500 µM | 32 µg/mL | > 64 µg/mL | > 64 µg/mL | 13,4 | 0,9 | 16,8 | 1,4 | 17 | 0,2 | 18,6 | -1,5 | 17,8 | -1,5 | 19,2 | -1,2 | 18,1 | -0,4 | 12,9 | -0,4 | MIC [4]: 32 µg/mL
